Earlier results on 41 molecules are cited in patent publication US20240156825A1, “USE OF SELECTIVE VEGFR2 AND FGFR1 INHIBITORS” (Fountain Therapeutics Inc., priority 2022, published 2024).

Each structure is given as a SMILES string. Like-named read-outs stand apart in the source and are kept apart here.

Data set [1] has as its target VEGFR2 (Homo sapiens, UniProt P35968). The settings on record: reported IC50 to VEGFR2, read-out: VEGFR2 IC50_μM, cited from earlier work.
Data set [2] concerns any gene target. The settings on record: read-out: Min IC50_μM, cited from earlier work.
[3] abbreviates: next lowest IC50 value to any gene target.
The mark [4] stands for this setting: Table 3, selective inhibitors of VEGFR2.
Setting [5] is: next lowest IC50 value to any gene target, Table 3.
[6] abbreviates: Table 2, lowest reported IC50 to any gene target.

Chain of VEGFR2 (P35968 20-1356, species assumed): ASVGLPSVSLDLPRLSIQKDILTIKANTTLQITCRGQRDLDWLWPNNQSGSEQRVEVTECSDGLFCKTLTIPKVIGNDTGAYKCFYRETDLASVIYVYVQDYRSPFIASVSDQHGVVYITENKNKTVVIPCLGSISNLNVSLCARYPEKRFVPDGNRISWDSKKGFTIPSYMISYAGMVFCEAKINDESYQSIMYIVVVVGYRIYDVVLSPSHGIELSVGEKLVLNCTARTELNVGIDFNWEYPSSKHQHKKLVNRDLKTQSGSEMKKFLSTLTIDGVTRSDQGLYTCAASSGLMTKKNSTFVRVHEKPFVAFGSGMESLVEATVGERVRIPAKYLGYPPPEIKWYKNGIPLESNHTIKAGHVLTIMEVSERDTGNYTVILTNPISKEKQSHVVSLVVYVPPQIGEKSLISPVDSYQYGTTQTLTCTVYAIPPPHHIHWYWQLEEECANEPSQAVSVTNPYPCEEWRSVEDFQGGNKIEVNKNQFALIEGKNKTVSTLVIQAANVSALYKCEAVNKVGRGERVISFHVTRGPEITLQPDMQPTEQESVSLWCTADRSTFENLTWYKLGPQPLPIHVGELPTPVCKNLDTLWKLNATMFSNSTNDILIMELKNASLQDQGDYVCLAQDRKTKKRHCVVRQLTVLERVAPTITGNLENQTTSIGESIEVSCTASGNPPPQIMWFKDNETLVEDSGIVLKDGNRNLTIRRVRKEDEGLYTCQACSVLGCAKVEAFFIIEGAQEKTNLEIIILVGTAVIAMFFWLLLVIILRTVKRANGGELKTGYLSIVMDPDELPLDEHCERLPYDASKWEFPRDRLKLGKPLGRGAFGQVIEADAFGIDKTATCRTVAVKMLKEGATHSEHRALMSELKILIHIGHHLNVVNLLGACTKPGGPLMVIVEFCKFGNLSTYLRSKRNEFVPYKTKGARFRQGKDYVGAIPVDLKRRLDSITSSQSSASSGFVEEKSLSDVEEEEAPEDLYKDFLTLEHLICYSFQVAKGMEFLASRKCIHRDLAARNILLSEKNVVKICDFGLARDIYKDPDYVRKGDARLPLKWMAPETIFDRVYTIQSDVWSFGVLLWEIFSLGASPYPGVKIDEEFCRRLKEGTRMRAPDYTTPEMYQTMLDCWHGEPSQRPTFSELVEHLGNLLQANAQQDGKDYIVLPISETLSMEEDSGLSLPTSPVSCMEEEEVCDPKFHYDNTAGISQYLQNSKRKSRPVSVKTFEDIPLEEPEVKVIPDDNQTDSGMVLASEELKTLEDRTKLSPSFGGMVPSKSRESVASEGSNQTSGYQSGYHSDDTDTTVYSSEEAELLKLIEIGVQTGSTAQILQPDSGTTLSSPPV

Consider `Nc1c(-c2ccc(F)cc2)c(-c2ccncc2)nn1-c1c(Cl)cc(Cl)cc1Cl` [compound 56924694], for which the figures for the IC50 in data set [1] and in data set [2] (setting [3]) were 29 nM and 31 nM, respectively. In the case of `COc1cc2c(Nc3c(F)cc(Br)cc3F)ncnc2cc1OCC1CCNCC1` [compound 5329051], the values for the IC50 in data set [1] and in data set [2] (setting [3]) were 15 nM and 70 nM, respectively. For `COc1cc(C2=C(c3c[nH]c4ccccc34)C(=O)NC2=O)cc(OC)c1OC` [compound 11530963], the IC50 in data set [1] was 2.5 nM; in data set [2] (setting [3]), 5 nM.

Consider `CC(=O)Nc1ccc2c(c1)C(c1ccccc1Cl)=Nc1cn[nH]c1N2` [compound 136002662], for which the IC50 in data set [1] was 33 nM; in data set [2] (setting [3]) it was 38 nM.

As for `COc1cc2c(Nc3ccc(Cl)c(Cl)c3)ncnc2cc1OCCC1CN(C)CC(C)(C)O1` (stereo not drawn) [compound 57802732], the IC50 in data set [1] and in data set [2] (setting [3]) was 50 nM each time. In the case of `Cc1cn2c(-c3cn[nH]c3)cnc2c(Nc2cc(CN3CCCCC3)ns2)n1` [compound 25144294], the IC50 in data set [1] is 4 nM; in data set [2] (setting [3]), 12 nM. Take `COc1cc2c(Nc3ccc(Br)cc3F)ncnc2cc1OCCC1CCN(C)CC1` [compound 5329053]: the IC50 was 6 nM in data set [1] and 60 nM in data set [2] (setting [3]). Regarding `COc1cc2c(Nc3cc(Cl)c(Cl)cc3F)ncnc2cc1OC[C@@H]1CN2CCC[C@H]2CO1` [compound 53630919], the IC50 in data set [1] (setting [4]) and in data set [2] (setting [5]) was 50 nM in each case. Regarding `COc1cc2c(Nc3cc(F)c(Br)cc3F)ncnc2cc1OCC1CN(C)CCO1` (stereo not drawn) [compound 57802916], the IC50 in data set [1] (setting [4]) and in data set [2] (setting [5]) was 50 nM each time. In the case of `COc1cc2c(Nc3ccc(Cl)c(Cl)c3)ncnc2cc1OCC1CN2CSC[C@H]2CO1` (stereo partly drawn) [compound 57802698], the IC50 in data set [1] and in data set [2] (setting [3]) was 50 nM throughout. As for `O=C(Nc1ccccc1)Nc1ccc2c(c1)NC(=O)/C2=C\c1ccc[nH]1` [compound 46182735], the IC50 in data set [1] is 1 nM; in data set [2] (setting [3]), 2.3 nM. Turning to `CCN=C(NC#N)N1CCOC(COc2cc3ncnc(Nc4ccc(Cl)c(Cl)c4)c3cc2OC)C1` (stereo not drawn) [compound 57802565], the IC50 in data set [1] (setting [4]) and in data set [2] (setting [5]) was 50 nM each time. Regarding `COc1ccc2c(c1)/C(=C/c1cc3c([nH]1)CCN(C(=O)N1CCN(C)CC1)C3)C(=O)N2` [compound 71714231], the IC50 in data set [1] (setting [4]) and in data set [2] (setting [5]) was 6 nM throughout.

`COc1ccc(Nc2ncc3c(n2)-c2ccccc2NC(=O)C3)cc1O` [compound 16730105]: the IC50 is 73 nM in data set [1] and 640 nM in data set [2] (setting [3]). For `COCCNC(=O)c1cccc2cc(Oc3ccnc4cc(OC)c(OC)cc34)ccc12` [compound 11362483], the figures for the IC50 in data set [1] and in data set [2] (setting [3]) were 12 nM and 73 nM, respectively.

For `COc1cc2c(Nc3ccc(C)cc3F)ncnc2cc1OCC1CCNCC1` [compound 5329049], the results for the IC50 in data set [1] and in data set [2] (setting [3]) were 30 nM and 250 nM, respectively. For `COc1cc2c(Nc3ccc(Cl)c(Cl)c3)ncnc2cc1OCC1CN(C(=O)C2CCCC2)CCO1` (stereo not drawn) [compound 57802868], the IC50 in data set [1] (setting [4]) and in data set [2] (setting [5]) was 50 nM each time. `COc1cc2c(Nc3ccc(Br)c(Cl)c3F)ncnc2cc1OC[C@@H]1CN2CCC[C@H]2C(=O)N1` [compound 57802807]: the IC50 in data set [1] and in data set [2] (setting [3]) was 50 nM throughout. Take `COc1cc(C2=C(c3cn(COCc4ccccc4)c4ccccc34)CNC2=O)cc(OC)c1OC` [compound 24894993]: the IC50 in data set [1] was 1600 nM; in data set [2] (setting [3]), 1700 nM. As to `COc1cc2c(Nc3ccc(Cl)c(Cl)c3)ncnc2cc1OCCC1CN(C)C(C)(C)CO1` (stereo not drawn) [compound 57802889], the IC50 in data set [1] (setting [4]) and in data set [2] (setting [5]) was 50 nM throughout. Consider `CCN1CCC(c2nc(COc3cc4ncnc(Nc5ccc(Cl)c(Cl)c5)c4cc3OC)no2)CC1` [compound 58013796], for which the IC50 in data set [1] (setting [4]) and in data set [2] (setting [5]) was 50 nM each time.

Regarding `COc1cc2c(Nc3ccc(Cl)c(Cl)c3)ncnc2cc1O[C@@H]1C[C@H]2OC[C@H](OC)[C@H]2O1` [compound 134140126], the IC50 in data set [1] (setting [4]) and in data set [2] (setting [5]) was 50 nM in each case. Take `O=C(CCCCCCCNC(=O)c1cc(Oc2ccc(NC(=O)Nc3ccc(Cl)c(C(F)(F)F)c3)cc2)ccn1)NO` [compound 25071593]: the IC50 in data set [1] and in data set [2] (setting [3]) was 100 nM each time. On to `COc1cc2c(Nc3ccc(Cl)c(Cl)c3)ncnc2cc1OCC1CN2CCOCC2CO1` (stereo not drawn) [compound 58013804], for which the IC50 in data set [1] (setting [4]) and in data set [2] (setting [5]) was 50 nM in each case. Take `c1cnc(NCc2ccncc2)c(-c2nnc(Nc3ccc4c(c3)OCCO4)o2)c1` [compound 44408215]: the IC50 was 170 nM in data set [1] and 29900 nM in data set [2] (setting [3]).

`COc1cc2c(Nc3ccc(Br)c(Cl)c3Cl)ncnc2cc1OC[C@@H]1CN2CCC[C@H]2CO1` [compound 57802722]: the IC50 in data set [1] and in data set [2] (setting [3]) was 50 nM throughout. Turning to `COc1cc2c(Nc3cc(Cl)c(Br)cc3F)ncnc2cc1OCC1COCCN1C` (stereo not drawn) [compound 134154844], the IC50 in data set [1] (setting [4]) and in data set [2] (setting [5]) was 50 nM each time.

For `COc1ccccc1/C(C)=C/c1coc2nc(N)nc(N)c12` [compound 6477203], the values for the IC50 in data set [1] and in data set [2] (setting [3]) were 10300 nM and 12800 nM, respectively. As to `COc1cc2c(Nc3ccc(Cl)c(Cl)c3)ncnc2cc1OC[C@@H]1CN2CCC[C@H]2CO1` [compound 57802678], the IC50 in data set [1] and in data set [2] (setting [3]) was 50 nM throughout. For `COc1cc2c(Nc3ccc(Cl)c(Cl)c3F)ncnc2cc1OCC1CN(C)CCO1` (stereo not drawn) [compound 57802591], the IC50 in data set [1] (setting [4]) and in data set [2] (setting [5]) was 50 nM each time. As for `CC1(C)CC(NC(=O)c2cccc(-c3cc4nccc(Nc5cccc(O)c5)n4n3)c2)CC(C)(C)N1[O]` [compound 46179972], the IC50 in data set [1] is 3.3 nM; in data set [2] (setting [3]), 5 nM. Take `COc1cc(N(CCNC(C)C)c2ccc3ncc(-c4cnn(C)c4)nc3c2)cc2c1OCO2` [compound 68209505]: the IC50 in data set [2] (setting [6]) was 2.88 nM. Consider `c1ccc(-c2cnc3c(Nc4ccc(N5CCCCC5)cc4)cncc3n2)cc1` [compound 127030424], for which the IC50 in data set [2] (setting [3]) was 2340 nM.

In the case of `O=C(Nc1cccc(C(F)(F)F)c1)c1ccccc1NCc1ccncc1` [compound 6398883], in data set [2] (setting [3]), the IC50 is 18 nM. Regarding `CNC1CCN(CCCN(c2cc(OC)cc(OC)c2)c2ccc3ncc(-c4cnn(C)c4)nc3c2)C1` (stereo not drawn) [compound 134140450], the IC50 in data set [2] (setting [6]) was 2.24 nM. Regarding `COc1cc(OC)cc(N(CC#Cc2cc(N)ccn2)c2ccc3ncc(-c4cnn(C)c4)nc3c2)c1` [compound 89447499], the IC50 in data set [2] (setting [6]) is 2.95 nM. In the case of `Cc1cccc(NC(=O)Nc2ccc(-c3cncc4c3c(N)nn4C)cc2)c1` [compound 11588815], the IC50 in data set [2] (setting [3]) is 2 nM. As for `COc1cc2c(Nc3ccc(Br)cc3F)ncnc2cc1OCCn1ccnn1` [compound 5329032], the IC50 in data set [1] is 30 nM. With `C=CC(=O)N1CCN(CCCn2c(=O)c(-c3c(Cl)c(OC)cc(OC)c3Cl)cc3cnc(NC)nc32)CC1` [compound 118295624], the IC50 in data set [2] (setting [6]) is 1.3 nM. For the molecule `COc1cc(OC)cc(N(CCNC(C)C)c2ccc3ncc(-c4cnn(C5CCN(C)CC5)c4)nc3c2)c1` [compound 134142615], in data set [2] (setting [6]), the IC50 was 2.95 nM.

Take `COc1cccnc1C#CCN(c1ccc2ncc(-c3cnn(C)c3)nc2c1)c1c(Cl)c(OC)cc(OC)c1Cl` [compound 89447340]: in data set [2] (setting [6]), the IC50 was 5.89 nM.
